Where two headings read alike, the source gives them in different places.
Key:
[1] = target: T1, human somatostatin receptor subtype sst3 (Homo sapiens, UniProt P32745); experiment: Competition binding with 125I-LTT-SRIF-28, CHO cell membranes, sst3; conditions: membranes of CHO cells transfected with human sst3
T1 construct: expressed in transfected cells; host or cells: CHO cells (membranes)
Description: (§1) The affinity of the compounds of the invention for the five human somatostatin receptor subtypes (sst1, sst2, sst3, sst4, and sst5) was determined in competition binding assays with (^125I-Tyr)-[Leu^8, DTrp^22]-Somatostatin-28 (^125I-LTT-SRIF-28). The biological material for these experiments consisted of membranes from Chinese hamster ovary (CHO) cells stably transfected with one of the five human somatostatin receptor subtypes. Membranes (3-20 μg of total protein per sample) and trace amount of ^125I-LTT-SRIF-28 were incubated in 10 mM Hepes, 1 mM EDTA, 5 mM MgCl2, 5 mg/ml of BSA and 30 μg/ml bacitracin, pH 7.6, with six concentrations of the compounds. Each concentration was run in duplicate. Nonspecific binding was defined by 1 μM somatostatin-14 (SRIF-14) and corresponded to 5-25% of total binding. After 60 min at room temperature, incubations were terminated by rapid vacuum filtration through GF/B glass fiber filter mats (presoaked at 4° C. in 200 ml of 10 mM Hepes, 1 mM EDTA, 5 mM MgCl2, pH 7.6) and three 5 ml washes with ice-cold wash buffer (20 mM TRIS, 1 mM EDTA, 5 mM MgCl2, pH 7.4). The filters were then dried, impregnated with scintillate and their radioactivity was measured by scintillation counting. […] Affinity constants (Ki) were calculated from the IC50 values according to the Cheng-Prusoff's equation (Cheng and Prusoff, 1973). […]

[2] = target: T2, human somatostatin receptor subtype sst1 (Homo sapiens, UniProt P30872); experiment: Competition binding with 125I-LTT-SRIF-28, CHO cell membranes, sst1
T2 construct: expressed in transfected cells; host or cells: CHO cells (membranes)
Description: (§2) The affinity of the compounds of the invention for the five human somatostatin receptor subtypes (sst1, sst2, sst3, sst4, and sst5) was determined in competition binding assays with (^125I-Tyr)-[Leu^8, DTrp^22]-Somatostatin-28 (^125I-LTT-SRIF-28). The biological material for these experiments consisted of membranes from Chinese hamster ovary (CHO) cells stably transfected with one of the five human somatostatin receptor subtypes. Membranes (3-20 μg of total protein per sample) and trace amount of ^125I-LTT-SRIF-28 were incubated in 10 mM Hepes, 1 mM EDTA, 5 mM MgCl2, 5 mg/ml of BSA and 30 μg/ml bacitracin, pH 7.6, with six concentrations of the compounds. Each concentration was run in duplicate. Nonspecific binding was defined by 1 μM somatostatin-14 (SRIF-14) and corresponded to 5-25% of total binding. After 60 min at room temperature, incubations were terminated by rapid vacuum filtration through GF/B glass fiber filter mats (presoaked at 4° C. in 200 ml of 10 mM Hepes, 1 mM EDTA, 5 mM MgCl2, pH 7.6) and three 5 ml washes with ice-cold wash buffer (20 mM TRIS, 1 mM EDTA, 5 mM MgCl2, pH 7.4). The filters were then dried, impregnated with scintillate and their radioactivity was measured by scintillation counting. The analysis of the experiments was carried out by nonlinear least square curve fitting. Affinity constants (Ki) were calculated from the IC50 values according to the Cheng-Prusoff's equation (Cheng and Prusoff, 1973). Experiments were repeated a minimum of three times.

[3] = target: T3, human somatostatin receptor subtype sst4 (Homo sapiens, UniProt P31391); experiment: Competition binding with 125I-LTT-SRIF-28, CHO cell membranes, sst4
T3 construct: expressed in transfected cells; host or cells: CHO cells (membranes)
Description: as §2

[4] = target: T4, human somatostatin receptor subtype sst2 (Homo sapiens, UniProt P30874); experiment: Competition binding with 125I-LTT-SRIF-28, CHO cell membranes, sst2; conditions: membranes of CHO cells transfected with human sst2
T4 construct: expressed in transfected cells; host or cells: CHO cells (membranes)
Description: as §1

[5] = target: T5, human somatostatin receptor subtype sst5 (Homo sapiens, UniProt P35346); experiment: Competition binding with 125I-LTT-SRIF-28, CHO cell membranes, sst5; conditions: membranes of CHO cells transfected with human sst5
T5 construct: expressed in transfected cells; host or cells: CHO cells (membranes)
Description: as §1

[6] = clinical trials; Eriksen et al. 1995, van Essen et al. 1997; cited from earlier work
[7] = membranes of CHO cells transfected with human sst1, read-out: sst1 Ki
[8] = membranes of CHO cells transfected with human sst4, read-out: sst4 Ki
[9] = bound only, read-out: Ki values for the sst1
[10] = bound only, read-out: Ki values for the sst4

T3 sequence (P31391 whole entry): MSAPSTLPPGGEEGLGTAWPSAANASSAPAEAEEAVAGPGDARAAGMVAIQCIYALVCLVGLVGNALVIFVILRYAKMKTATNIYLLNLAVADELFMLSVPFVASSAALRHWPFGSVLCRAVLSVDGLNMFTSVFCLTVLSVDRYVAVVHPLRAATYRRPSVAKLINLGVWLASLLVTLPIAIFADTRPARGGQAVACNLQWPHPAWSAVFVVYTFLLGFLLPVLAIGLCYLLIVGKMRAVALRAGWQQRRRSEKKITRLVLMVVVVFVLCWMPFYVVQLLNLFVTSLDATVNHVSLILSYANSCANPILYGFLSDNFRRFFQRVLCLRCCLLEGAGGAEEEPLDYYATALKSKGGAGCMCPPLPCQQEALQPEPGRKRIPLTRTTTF
T2 sequence (P30872 whole entry): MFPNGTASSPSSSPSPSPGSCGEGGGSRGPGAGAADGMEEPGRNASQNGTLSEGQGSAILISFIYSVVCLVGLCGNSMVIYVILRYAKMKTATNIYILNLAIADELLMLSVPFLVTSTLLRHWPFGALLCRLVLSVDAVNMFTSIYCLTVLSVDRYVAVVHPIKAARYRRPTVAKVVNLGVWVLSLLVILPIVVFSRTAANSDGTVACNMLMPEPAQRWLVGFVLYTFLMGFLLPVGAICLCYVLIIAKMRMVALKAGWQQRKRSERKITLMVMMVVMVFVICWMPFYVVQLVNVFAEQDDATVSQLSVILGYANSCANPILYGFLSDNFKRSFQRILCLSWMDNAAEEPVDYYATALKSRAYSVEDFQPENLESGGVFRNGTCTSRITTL
T5 sequence (P35346 whole entry): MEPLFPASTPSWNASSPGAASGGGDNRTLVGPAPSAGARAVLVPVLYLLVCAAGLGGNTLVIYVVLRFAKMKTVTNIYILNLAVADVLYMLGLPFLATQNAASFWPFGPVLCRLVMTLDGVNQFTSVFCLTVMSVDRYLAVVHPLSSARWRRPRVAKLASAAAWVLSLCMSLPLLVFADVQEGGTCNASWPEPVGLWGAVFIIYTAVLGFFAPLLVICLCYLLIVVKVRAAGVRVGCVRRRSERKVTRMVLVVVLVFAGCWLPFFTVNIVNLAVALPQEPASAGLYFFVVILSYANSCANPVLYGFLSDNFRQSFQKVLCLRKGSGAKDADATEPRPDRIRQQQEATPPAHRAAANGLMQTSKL
T4 sequence (P30874 whole entry): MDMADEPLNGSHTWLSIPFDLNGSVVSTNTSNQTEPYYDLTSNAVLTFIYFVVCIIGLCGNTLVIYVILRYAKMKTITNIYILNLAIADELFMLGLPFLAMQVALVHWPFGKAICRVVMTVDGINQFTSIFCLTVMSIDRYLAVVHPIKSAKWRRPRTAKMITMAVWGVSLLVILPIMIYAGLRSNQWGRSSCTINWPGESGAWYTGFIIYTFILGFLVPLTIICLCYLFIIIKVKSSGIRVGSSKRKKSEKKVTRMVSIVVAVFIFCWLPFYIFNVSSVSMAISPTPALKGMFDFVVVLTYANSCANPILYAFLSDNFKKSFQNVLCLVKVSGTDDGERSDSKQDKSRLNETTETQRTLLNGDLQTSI
T1 sequence (P32745 whole entry): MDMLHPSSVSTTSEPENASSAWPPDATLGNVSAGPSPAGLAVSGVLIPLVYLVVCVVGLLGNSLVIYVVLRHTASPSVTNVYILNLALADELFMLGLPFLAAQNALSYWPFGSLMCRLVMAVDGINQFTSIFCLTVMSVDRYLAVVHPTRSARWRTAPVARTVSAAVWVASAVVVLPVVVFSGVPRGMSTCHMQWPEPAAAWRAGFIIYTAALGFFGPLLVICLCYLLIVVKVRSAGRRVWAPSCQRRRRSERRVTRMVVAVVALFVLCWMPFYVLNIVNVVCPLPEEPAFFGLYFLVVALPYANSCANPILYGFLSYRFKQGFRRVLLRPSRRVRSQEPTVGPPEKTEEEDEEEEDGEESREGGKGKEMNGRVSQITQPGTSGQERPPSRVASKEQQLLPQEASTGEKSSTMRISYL

Row | SMILES | Ki [1] [nM] | Ki [2, 7] [nM] | Ki [3, 8] [nM] | Ki [4] [nM] | Ki [5] [nM] | Ki [2, 9] [nM] | Ki [3, 10] [nM] | efficacy in prevention of restenosis [6]
1 | CC(C)[C@@H]1NC(=O)[C@H](CCCCN)NC(=O)[C@@H](Cc2c[nH]c3ccccc23)NC(=O)[C@H](Cc2ccc(O)cc2)NC(=O)[C@@H](NC(=O)[C@H](N)Cc2ccc3ccccc3c2)CSSC[C@@H](C(=O)N[C@H](C(N)=O)[C@@H](C)O)NC1=O [lanreotide] | – | – | – | – | – | – | – | failed to show efficacy
2 | C[C@@H](O)[C@@H]1NC(=O)[C@H](CCCCN)NC(=O)[C@@H](Cc2c[nH]c3ccccc23)NC(=O)[C@H](Cc2ccccc2)NC(=O)[C@@H](NC(=O)[C@H](N)Cc2ccccc2)CSSC[C@@H](C(=O)N[C@H](CO)[C@@H](C)O)NC1=O [octreotide] | – | – | – | – | – | – | – | failed to show efficacy

Now from value to compound, other results behind:

Row | Ki [1] [nM] | Ki [2, 7] [nM] | Ki [3, 8] [nM] | Ki [4] [nM] | Ki [5] [nM] | Ki [2, 9] [nM] | Ki [3, 10] [nM] | SMILES | efficacy in prevention of restenosis [6]
3 | > 3000 | 200 ± 60 | 5.6 ± 3.2 | > 10000 | > 3000 | – | – | Cc1ccc(S(=O)(=O)N[C@@H](CCN)CNCc2ccccc2)c2ccccc12 [compound 2, (S)-4-methylnaphthalene-1-sulfonic acid (3-amino-1-benzyl-aminomethylpropyl)amide] | –
4 | > 3000 | 9.6 ± 0.5 | 110 ± 10 | > 10000 | > 3000 | < 300 | < 300 | Cc1ccc(S(=O)(=O)N[C@@H](CCCNC(C)C)COc2ccccc2)c2ccccc12 [compound 33, (S)-4-methylnaphthalene-1-sulfonic acid (4-isopropylamino-1-phenoxymethylbutyl)amide] | –
5 | – | – | – | – | – | < 300 | < 300 | Cc1ccc(S(=O)(=O)NC(COCc2ccccc2)CC2CCCN2)c2ccccc12 (stereo not drawn) [compound 32, 4-methylnaphthalene-1-sulfonic acid (1-benzyloxymethyl-2-pyrrolidin-2-ylethyl)amide] | –
6 | – | – | – | – | – | < 300 | < 300 | Cc1ccc(S(=O)(=O)N[C@H](CCN)COCc2ccccc2)c2ccccc12 [compound 64, (R)-4-methylnaphthalene-1-sulfonic acid (3-amino-1-benzyloxymethylpropyl)amide] | –

Reference: US20100048549A1, “Peptidomimetics selective for the somatostatin receptor subtypes 1 and/or 4” (priority 2005, published 2010)
